{
  "source": "ChEMBL document CHEMBL5465560",
  "about": "“Selectivity Literature for EUbOPEN Chemogenomic Library” (2024)",
  "key": {"[1]": {"target": "Non-receptor tyrosine-protein kinase TYK2 (Homo sapiens, UniProt P29597)", "sequence (P29597 whole entry)": "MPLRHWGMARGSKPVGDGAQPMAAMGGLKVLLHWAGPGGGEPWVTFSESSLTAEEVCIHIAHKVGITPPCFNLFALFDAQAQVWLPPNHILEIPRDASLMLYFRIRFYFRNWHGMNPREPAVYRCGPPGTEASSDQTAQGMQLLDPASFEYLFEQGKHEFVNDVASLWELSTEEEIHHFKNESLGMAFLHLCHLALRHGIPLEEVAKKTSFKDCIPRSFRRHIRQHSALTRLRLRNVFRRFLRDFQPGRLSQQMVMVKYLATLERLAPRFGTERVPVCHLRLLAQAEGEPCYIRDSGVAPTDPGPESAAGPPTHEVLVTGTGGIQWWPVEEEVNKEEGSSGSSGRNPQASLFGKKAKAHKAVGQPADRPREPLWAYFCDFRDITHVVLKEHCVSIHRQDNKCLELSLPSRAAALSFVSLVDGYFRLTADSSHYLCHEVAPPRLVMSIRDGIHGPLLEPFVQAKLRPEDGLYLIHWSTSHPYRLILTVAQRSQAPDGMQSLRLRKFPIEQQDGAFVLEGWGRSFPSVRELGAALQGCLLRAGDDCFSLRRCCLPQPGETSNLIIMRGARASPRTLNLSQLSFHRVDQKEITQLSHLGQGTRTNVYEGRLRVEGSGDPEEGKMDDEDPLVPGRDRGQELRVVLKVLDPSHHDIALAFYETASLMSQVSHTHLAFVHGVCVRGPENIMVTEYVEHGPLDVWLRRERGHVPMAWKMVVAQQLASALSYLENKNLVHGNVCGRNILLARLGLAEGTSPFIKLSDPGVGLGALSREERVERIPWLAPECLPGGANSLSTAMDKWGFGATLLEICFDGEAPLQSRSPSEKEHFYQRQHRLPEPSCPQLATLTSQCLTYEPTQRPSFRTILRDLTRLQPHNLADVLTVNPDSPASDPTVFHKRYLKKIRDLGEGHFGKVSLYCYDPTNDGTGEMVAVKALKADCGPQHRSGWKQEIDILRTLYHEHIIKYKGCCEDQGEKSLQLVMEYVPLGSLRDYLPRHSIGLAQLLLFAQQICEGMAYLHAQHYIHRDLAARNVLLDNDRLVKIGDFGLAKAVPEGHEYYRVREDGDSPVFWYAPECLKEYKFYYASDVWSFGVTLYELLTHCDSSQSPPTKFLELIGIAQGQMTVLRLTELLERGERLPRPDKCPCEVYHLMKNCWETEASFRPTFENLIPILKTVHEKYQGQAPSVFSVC", "test": "Selectivity interaction (KinomeScan (DiscoverX)) EUB0001079a TYK2", "conditions": "at 1 µM"}, "[2]": {"target": "Casein kinase I isoform delta (Homo sapiens, UniProt P48730)", "test": "Selectivity interaction (KinomeScan (DiscoverX)) EUB0000618a CSNK1D", "conditions": "at 10 µM"}, "[3]": {"test": "Selectivity interaction (KinomeScan (DiscoverX)) EUB0000618a PKNB", "conditions": "at 10 µM"}, "[4]": {"target": "Dual specificity tyrosine-phosphorylation-regulated kinase 1A (Homo sapiens, UniProt Q13627)", "test": "Selectivity interaction (KinomeScan (DiscoverX)) EUB0000607a DYRK1A", "conditions": "at 10 µM"}, "[5]": {"target": "Serine/threonine-protein kinase MRCK alpha (Homo sapiens) (UniProt Q5VT25)", "sequence (Q5VT25 whole entry)": "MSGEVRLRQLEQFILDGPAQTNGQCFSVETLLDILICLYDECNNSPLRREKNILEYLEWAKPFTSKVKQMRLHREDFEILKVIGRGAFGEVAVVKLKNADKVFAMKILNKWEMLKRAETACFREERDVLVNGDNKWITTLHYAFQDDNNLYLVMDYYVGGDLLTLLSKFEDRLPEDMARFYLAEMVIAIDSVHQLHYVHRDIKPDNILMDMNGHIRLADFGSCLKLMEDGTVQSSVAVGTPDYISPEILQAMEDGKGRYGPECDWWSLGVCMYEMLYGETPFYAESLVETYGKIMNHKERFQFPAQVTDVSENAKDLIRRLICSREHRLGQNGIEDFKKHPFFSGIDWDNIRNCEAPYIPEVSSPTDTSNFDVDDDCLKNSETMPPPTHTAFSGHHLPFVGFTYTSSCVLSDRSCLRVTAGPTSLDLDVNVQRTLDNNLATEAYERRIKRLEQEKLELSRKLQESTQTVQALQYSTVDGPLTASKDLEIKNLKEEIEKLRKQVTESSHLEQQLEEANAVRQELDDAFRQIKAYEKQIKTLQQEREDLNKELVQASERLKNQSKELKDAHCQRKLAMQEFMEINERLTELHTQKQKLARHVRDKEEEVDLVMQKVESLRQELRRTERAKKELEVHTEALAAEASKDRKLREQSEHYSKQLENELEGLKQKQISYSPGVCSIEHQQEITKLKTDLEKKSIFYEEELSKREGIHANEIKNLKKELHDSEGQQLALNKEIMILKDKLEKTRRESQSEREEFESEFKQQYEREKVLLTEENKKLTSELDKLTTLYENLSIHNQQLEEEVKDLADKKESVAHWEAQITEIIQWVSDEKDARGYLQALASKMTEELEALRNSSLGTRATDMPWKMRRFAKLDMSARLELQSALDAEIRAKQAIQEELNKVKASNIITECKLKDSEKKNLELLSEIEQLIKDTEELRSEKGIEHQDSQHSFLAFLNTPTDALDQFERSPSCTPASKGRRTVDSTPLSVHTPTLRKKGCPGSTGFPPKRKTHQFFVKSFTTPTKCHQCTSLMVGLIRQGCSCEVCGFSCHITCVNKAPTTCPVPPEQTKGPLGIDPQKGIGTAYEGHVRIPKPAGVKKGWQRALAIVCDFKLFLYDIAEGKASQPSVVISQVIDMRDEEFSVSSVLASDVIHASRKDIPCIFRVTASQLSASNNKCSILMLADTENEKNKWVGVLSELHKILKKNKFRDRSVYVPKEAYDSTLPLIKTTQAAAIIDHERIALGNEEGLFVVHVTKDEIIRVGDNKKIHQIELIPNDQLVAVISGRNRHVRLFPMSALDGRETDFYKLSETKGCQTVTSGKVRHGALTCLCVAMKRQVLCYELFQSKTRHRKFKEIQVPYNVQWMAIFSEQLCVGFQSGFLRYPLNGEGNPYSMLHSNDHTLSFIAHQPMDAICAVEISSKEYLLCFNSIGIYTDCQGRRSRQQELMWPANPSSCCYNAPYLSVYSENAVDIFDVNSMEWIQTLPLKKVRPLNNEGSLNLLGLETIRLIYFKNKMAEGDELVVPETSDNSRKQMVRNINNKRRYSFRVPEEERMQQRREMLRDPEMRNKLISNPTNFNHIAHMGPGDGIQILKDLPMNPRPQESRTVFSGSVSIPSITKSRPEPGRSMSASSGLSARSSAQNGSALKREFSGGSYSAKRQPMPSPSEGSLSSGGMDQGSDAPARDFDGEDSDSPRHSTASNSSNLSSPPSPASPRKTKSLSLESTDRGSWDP", "test": "Selectivity interaction (KinomeScan (DiscoverX)) EUB0000045b CDC42BPA"}, "[6]": {"target": "T1, Tyrosine-protein kinase ITK/TSK (Homo sapiens) (UniProt Q08881)", "T1 sequence (whole entry)": "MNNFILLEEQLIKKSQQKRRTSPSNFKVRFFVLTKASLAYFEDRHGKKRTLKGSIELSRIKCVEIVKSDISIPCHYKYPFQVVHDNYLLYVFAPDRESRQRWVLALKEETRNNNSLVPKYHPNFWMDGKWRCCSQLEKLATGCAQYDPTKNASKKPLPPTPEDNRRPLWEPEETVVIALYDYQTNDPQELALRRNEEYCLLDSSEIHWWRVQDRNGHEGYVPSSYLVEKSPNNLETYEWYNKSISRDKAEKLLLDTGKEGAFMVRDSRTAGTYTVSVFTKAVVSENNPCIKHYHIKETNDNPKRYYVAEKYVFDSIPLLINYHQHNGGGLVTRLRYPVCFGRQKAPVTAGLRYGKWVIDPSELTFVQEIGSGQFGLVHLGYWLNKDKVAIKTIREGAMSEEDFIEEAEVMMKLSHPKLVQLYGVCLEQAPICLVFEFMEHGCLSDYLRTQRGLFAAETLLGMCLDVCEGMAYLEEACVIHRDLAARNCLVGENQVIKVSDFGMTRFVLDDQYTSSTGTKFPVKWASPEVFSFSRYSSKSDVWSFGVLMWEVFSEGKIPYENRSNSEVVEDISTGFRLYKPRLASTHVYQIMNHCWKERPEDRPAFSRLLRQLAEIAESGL", "test": "Selectivity interaction (KinomeScan (DiscoverX)) EUB0000045b ITK"}, "[7]": {"target": "Vascular endothelial growth factor receptor 2 (Homo sapiens, UniProt P35968)", "sequence (P35968 whole entry)": "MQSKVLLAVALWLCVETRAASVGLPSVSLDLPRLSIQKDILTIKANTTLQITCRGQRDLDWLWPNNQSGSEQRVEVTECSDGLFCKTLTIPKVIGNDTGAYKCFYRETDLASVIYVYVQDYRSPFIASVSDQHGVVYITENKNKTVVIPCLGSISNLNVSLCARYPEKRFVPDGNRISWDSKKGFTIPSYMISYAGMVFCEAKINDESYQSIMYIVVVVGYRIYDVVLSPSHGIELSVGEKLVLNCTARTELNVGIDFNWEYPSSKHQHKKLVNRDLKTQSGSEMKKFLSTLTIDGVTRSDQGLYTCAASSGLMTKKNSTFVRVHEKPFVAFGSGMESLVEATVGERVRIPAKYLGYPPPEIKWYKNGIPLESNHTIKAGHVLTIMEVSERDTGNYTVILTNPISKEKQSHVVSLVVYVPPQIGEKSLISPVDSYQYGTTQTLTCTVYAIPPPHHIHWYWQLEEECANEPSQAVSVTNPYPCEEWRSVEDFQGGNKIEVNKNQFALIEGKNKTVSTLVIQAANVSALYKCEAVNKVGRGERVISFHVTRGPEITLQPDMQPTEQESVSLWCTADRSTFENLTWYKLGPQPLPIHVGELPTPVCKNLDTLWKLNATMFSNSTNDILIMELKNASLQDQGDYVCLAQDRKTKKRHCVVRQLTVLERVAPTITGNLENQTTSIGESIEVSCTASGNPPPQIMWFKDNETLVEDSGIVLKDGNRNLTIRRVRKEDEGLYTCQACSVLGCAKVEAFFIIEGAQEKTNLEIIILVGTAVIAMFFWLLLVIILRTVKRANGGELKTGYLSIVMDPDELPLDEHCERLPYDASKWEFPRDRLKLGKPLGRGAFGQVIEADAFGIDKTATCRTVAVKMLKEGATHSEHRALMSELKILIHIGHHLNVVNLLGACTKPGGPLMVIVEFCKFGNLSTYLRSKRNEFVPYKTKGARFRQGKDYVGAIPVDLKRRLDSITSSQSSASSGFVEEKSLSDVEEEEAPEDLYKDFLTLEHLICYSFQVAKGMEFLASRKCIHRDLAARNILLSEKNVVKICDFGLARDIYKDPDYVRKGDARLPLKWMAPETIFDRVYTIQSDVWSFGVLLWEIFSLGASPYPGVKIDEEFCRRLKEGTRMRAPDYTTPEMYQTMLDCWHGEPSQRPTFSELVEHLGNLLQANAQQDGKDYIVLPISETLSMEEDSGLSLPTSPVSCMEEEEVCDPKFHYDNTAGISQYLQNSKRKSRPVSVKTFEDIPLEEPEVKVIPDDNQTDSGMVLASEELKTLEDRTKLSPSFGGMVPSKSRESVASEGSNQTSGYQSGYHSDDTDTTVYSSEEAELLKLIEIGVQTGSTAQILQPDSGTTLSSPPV", "test": "Selectivity interaction (KinomeScan (DiscoverX)) EUB0000045b KDR"}, "[8]": {"target": "Cyclin-dependent kinase 2 (Homo sapiens, UniProt P24941)", "test": "Selectivity interaction (ActivX KiNativ screen (kinase selectivity in THP-1 cell lysates)) EUB0000639a CDK2", "type": "subcellular", "conditions": "lysate, at 5 µM"}, "[9]": {"target": "T2, Tyrosine-protein kinase SYK (Homo sapiens, UniProt P43405)", "test": "Selectivity interaction (ActivX KiNativ screen (kinase selectivity in THP-1 cell lysates)) EUB0000639a SYK", "type": "subcellular", "conditions": "lysate, at 0.01 µM"}, "[10]": {"target": "T3, Serine/threonine-protein kinase ULK3 (Homo sapiens) (UniProt Q6PHR2)", "T3 sequence (whole entry)": "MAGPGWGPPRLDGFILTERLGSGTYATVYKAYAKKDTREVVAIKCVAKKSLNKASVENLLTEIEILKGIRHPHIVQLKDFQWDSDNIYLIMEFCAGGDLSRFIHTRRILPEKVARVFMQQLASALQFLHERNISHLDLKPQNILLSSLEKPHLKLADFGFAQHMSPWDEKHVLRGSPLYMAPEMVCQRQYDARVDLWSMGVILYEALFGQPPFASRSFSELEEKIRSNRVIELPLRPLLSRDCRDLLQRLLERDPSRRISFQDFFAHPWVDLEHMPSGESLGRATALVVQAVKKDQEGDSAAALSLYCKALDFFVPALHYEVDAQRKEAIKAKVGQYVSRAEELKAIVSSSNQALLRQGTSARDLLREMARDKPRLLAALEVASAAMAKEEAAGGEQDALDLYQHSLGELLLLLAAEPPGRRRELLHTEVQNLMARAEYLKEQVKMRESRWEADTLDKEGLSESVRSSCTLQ", "test": "Selectivity interaction (ActivX KiNativ screen (kinase selectivity in THP-1 cell lysates)) EUB0000639a ULK3", "type": "subcellular", "conditions": "lysate, at 0.01 µM"}, "[11]": {"target": "Ribosomal protein S6 kinase alpha-1 (Homo sapiens, UniProt Q15418)", "sequence (Q15418 whole entry)": "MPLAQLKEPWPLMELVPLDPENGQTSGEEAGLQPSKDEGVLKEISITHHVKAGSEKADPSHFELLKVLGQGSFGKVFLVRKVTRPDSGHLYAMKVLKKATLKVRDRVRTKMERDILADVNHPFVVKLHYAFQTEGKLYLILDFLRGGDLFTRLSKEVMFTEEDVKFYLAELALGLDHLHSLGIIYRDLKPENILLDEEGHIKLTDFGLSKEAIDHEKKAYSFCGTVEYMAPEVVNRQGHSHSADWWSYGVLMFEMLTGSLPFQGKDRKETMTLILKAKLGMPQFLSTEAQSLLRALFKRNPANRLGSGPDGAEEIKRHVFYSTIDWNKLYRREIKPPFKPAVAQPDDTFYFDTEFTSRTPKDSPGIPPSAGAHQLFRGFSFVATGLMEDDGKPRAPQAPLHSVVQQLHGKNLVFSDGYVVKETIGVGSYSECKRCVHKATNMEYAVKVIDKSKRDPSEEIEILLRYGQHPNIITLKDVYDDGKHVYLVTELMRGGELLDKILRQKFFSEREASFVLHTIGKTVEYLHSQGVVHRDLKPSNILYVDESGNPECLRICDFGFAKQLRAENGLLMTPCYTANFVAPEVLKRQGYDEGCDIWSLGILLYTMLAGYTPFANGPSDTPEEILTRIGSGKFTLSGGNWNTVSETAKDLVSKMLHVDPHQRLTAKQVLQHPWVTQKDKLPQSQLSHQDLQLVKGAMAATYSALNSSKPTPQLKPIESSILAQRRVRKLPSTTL", "test": "Selectivity interaction (KinomeScan (DiscoverX)) EUB0001049a RPS6KA1", "conditions": "at 1 µM"}, "[12]": {"target": "T4, Receptor-interacting serine/threonine-protein kinase 4 (Homo sapiens) (UniProt P57078)", "T4 sequence (whole entry)": "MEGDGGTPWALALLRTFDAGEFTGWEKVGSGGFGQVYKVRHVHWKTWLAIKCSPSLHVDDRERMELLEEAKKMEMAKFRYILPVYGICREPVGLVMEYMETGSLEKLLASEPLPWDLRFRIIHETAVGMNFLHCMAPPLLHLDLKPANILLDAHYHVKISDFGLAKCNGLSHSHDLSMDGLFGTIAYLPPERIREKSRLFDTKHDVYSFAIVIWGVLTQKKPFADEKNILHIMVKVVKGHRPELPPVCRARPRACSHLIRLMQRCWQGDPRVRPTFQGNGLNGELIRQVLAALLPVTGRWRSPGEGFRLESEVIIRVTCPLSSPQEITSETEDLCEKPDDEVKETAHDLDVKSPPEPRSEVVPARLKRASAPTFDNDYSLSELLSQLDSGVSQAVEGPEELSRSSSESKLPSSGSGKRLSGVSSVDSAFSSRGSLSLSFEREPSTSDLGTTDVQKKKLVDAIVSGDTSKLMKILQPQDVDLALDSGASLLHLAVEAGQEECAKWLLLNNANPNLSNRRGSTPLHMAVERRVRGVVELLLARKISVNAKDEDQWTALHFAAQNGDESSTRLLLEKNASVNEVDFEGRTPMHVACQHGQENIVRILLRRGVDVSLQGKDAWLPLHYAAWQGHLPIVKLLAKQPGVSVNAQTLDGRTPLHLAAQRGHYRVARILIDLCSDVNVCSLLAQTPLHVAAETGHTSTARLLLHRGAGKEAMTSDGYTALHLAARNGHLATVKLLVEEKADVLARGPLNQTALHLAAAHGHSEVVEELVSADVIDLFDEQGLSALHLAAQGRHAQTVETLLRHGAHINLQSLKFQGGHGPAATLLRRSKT", "test": "Selectivity interaction (KinomeScan (DiscoverX)) EUB0000695a RIPK4", "conditions": "at 100 nM"}, "[13]": {"target": "T2, Tyrosine-protein kinase SYK", "test": "Selectivity interaction (KinomeScan (DiscoverX)) EUB0000695a SYK", "conditions": "at 100 nM"}},
  "data": [
    {"smiles": "Nc1cnc(N2CCc3cc(S(=O)(=O)Nc4c(F)cc(Cl)cc4F)cc(N4CCCC4=O)c32)nc1", "note": "[TP-020n]", "values": [
      {"measurement": "% of control", "setting": "[1]", "result": 100, "unit": "%"}
    ]},
    {"smiles": "O[C@H]1CC[C@H](Nc2ncc3nc(Nc4c(F)cc(F)cc4F)n([C@H]4CCOC4)c3n2)CC1", "values": [
      {"measurement": "% of control", "setting": "[2]", "result": 83, "unit": "%"},
      {"measurement": "% of control", "setting": "[3]", "result": 92, "unit": "%"}
    ]},
    {"smiles": "CNC(=O)Nc1ccc(-c2nc(N3CC4CCC(C3)O4)c3cnn(C4CCC5(CC4)OCCO5)c3n2)cc1", "values": [
      {"measurement": "% of control", "setting": "[4]", "result": 100, "unit": "%"}
    ]},
    {"smiles": "C=CC(=O)Nc1cc(-n2c(=O)ccc3cnc4ccc(-c5ccc(NS(C)(=O)=O)cc5)cc4c32)ccc1C", "values": [
      {"measurement": "% of control", "setting": "[5]; at 1 µM", "result": 100, "unit": "%"},
      {"measurement": "% of control", "setting": "[5]; at 10 µM", "result": 96, "unit": "%"},
      {"measurement": "% of control", "setting": "[6]; at 1 µM", "result": 52, "unit": "%"},
      {"measurement": "% of control", "setting": "[6]; at 10 µM", "result": 43, "unit": "%"},
      {"measurement": "% of control", "setting": "[7]; at 1 µM", "result": 97, "unit": "%"},
      {"measurement": "% of control", "setting": "[7]; at 10 µM", "result": 100, "unit": "%"}
    ]},
    {"smiles": "CC[C@@H]1[C@H](F)C(=O)N[C@@H]1COc1nccc2cc(C(N)=O)c(OC)cc12", "note": "[ZIMLOVISERTIB]", "values": [
      {"measurement": "% of inhibition", "setting": "[8]", "result": 3, "unit": "%"},
      {"measurement": "% of inhibition", "setting": "[9]", "result": 7.1, "unit": "%"},
      {"measurement": "% of inhibition", "setting": "[10]", "result": -8.9, "unit": "%"}
    ]},
    {"smiles": "COc1cc(Nc2nc(C)cc(-c3cnn4nc(OC)ccc34)n2)cc(C(F)(F)F)c1", "values": [
      {"measurement": "% of control", "setting": "[11]", "result": 88, "unit": "%"}
    ]},
    {"smiles": "Cc1cc(F)c(C(=O)Nc2cccc(-c3nncn3C(C)C)n2)cc1-n1cnc(C2CC2)c1", "values": [
      {"measurement": "% of control", "setting": "[12]", "result": 100, "unit": "%"},
      {"measurement": "% of control", "setting": "[13]", "result": 76, "unit": "%"}
    ]}
  ]
}
